We go through 9 compounds from patent US11180474B2 (BRISTOL-MYERS SQUIBB COMPANY, priority 2016, dated 2021).

One assay has as its target T1, human TLR9 (Homo sapiens, UniProt Q9NR96).
T1 construct: host or cells: HEK-Blue cells
T1 sequence (Q9NR96 26-1032): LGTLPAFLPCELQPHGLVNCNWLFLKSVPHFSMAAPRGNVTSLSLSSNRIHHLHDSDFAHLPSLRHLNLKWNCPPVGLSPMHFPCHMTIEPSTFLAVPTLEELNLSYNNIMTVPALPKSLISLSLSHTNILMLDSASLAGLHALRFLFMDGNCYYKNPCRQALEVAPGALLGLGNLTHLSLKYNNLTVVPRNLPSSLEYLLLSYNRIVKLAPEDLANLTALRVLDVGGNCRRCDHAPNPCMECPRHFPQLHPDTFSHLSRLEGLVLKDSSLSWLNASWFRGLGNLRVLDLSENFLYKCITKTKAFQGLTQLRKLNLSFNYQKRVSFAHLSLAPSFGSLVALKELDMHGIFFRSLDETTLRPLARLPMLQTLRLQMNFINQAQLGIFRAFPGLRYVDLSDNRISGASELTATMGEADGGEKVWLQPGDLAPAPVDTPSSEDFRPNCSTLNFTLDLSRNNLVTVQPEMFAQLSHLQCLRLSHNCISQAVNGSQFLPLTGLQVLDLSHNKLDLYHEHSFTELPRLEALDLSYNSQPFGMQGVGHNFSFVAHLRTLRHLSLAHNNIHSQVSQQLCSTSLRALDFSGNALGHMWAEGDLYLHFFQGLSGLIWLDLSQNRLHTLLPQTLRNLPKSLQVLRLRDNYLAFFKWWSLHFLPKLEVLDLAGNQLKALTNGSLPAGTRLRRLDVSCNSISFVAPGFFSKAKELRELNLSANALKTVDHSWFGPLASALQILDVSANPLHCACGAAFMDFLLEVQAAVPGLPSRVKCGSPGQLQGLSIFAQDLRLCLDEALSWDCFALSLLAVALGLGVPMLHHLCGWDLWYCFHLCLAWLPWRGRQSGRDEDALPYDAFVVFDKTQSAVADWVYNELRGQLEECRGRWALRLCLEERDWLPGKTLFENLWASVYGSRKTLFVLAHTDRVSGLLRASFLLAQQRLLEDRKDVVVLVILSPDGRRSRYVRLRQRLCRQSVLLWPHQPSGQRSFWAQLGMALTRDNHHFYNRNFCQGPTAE
The assay can be described thus: TLR9 inhibition reporter assay (HEK-Blue cells, SEAP reporter, ODN2006 stimulation). In kind it is cell-based. To be noted: HEK-Blue cells overexpressing human TLR9, ODN2006 5 nM. The method in brief:
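Compound treatment: 30 min, RT, 0.05 nM–50 μM final. Agonist: TLR7 gardiquimod 7.5 μM; TLR8 R848 15.9 μM; TLR9 ODN2006 5 nM. Incubation 22 h, 37 °C, 5% CO2. Readout SEAP, HEK-Blue Detection.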
On the technique in general: A reporter such as luciferase makes a cellular process visible.

The target in another assay is T2, human TLR8 (Homo sapiens, UniProt Q9NR97).
T2 construct: host or cells: HEK-Blue cells
T2 sequence (Q9NR97 27-1041): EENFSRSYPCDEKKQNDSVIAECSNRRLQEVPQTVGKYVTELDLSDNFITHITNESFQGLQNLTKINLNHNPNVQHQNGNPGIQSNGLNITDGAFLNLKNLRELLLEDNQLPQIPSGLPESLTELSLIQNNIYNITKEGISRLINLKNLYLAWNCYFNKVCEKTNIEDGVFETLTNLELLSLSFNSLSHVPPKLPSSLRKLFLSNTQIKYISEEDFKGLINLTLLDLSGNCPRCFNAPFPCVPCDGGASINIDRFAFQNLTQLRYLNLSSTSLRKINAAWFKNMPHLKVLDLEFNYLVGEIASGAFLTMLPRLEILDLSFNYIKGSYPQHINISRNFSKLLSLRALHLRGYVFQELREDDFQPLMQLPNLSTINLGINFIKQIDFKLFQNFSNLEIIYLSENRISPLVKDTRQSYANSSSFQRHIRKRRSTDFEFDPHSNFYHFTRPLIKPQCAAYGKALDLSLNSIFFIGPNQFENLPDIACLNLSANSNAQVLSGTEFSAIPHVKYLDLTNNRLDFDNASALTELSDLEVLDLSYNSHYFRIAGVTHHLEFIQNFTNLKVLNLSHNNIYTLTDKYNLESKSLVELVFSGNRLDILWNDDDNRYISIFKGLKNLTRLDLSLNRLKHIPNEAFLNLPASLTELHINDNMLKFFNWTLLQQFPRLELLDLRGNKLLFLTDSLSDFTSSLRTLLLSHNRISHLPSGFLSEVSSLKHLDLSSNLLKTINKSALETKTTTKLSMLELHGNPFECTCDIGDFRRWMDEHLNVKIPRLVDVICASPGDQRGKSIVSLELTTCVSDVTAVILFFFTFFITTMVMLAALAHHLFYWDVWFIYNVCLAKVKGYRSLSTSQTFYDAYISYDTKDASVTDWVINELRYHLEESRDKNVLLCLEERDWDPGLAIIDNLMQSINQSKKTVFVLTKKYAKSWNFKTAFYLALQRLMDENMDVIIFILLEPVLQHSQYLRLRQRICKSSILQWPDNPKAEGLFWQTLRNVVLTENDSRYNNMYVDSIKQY
The experiment in a line: TLR8 inhibition reporter assay (HEK-Blue cells, SEAP reporter, R848 stimulation). In kind it is cell-based. To be noted: HEK-Blue cells overexpressing human TLR8, R848 15.9 μM. How it is done:
TLR7/8/9 Inhibition Reporter Assays
Briefly, cells are seeded into Greiner 384 well plates (15000 cells per well for TLR7, 20,000 for TLR8 and 25,000 for TLR9) and then treated with test compounds in DMSO to yield a final dose response concentration range of 0.05 nM-50 μM. […] After a 22 hour incubation at 37° C., 5% CO2, SEAP levels are determined with the addition of HEK-Blue™ Detection reagent (Invivogen), a cell culture medium that allows for detection of SEAP, according to manufacturer's specifications. The percent inhibition is determined as the % reduction in the HEK-Blue signal present in wells treated with agonist plus DMSO alone compared to wells treated with a known inhibitor.

For the next assay, the target named is T3, human TLR7 (Homo sapiens, UniProt Q9NYK1).
T3 construct: host or cells: HEK-Blue cells
T3 sequence (Q9NYK1 27-1049): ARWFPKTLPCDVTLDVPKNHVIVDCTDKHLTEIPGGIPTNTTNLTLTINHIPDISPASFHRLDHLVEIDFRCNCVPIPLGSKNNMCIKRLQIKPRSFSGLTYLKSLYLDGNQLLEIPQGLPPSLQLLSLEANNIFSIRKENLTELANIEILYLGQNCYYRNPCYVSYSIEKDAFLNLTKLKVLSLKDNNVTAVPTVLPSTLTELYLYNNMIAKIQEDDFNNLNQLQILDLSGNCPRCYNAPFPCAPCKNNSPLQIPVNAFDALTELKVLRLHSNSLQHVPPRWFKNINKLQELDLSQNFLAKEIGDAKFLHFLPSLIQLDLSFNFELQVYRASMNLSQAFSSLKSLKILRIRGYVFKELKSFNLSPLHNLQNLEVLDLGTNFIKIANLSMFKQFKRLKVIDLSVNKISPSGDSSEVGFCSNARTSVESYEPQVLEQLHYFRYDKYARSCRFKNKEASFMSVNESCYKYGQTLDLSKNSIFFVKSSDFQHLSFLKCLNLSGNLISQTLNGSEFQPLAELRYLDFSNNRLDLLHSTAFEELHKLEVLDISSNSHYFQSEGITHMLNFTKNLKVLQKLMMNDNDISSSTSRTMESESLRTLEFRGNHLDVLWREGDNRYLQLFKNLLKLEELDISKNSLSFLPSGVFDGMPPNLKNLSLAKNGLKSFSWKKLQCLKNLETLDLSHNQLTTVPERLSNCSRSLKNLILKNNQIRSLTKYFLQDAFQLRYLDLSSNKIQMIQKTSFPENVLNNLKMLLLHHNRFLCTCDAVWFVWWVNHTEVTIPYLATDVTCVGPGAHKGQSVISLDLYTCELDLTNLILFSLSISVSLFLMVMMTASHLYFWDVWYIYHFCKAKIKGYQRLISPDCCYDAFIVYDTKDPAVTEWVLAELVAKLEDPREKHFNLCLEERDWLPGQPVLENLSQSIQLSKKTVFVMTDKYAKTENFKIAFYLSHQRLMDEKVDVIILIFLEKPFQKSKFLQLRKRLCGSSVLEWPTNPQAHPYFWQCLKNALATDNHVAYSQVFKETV
The assay can be described thus: TLR7 inhibition reporter assay (HEK-Blue cells, SEAP reporter, gardiquimod stimulation). To be noted: HEK-Blue cells overexpressing human TLR7, gardiquimod 7.5 μM. It is filed as cell-based. The procedure, abridged:
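22 h, 37° C, 5% CO2 incubation; compounds 0.05 nM-50 μM final; TLR7 cells 15000/well, TLR8 20,000/well. Readout: SEAP via HEK-Blue Detection medium. % inhibition = signal reduction versus agonist + DMSO wells, referenced to known inhibitor.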

Another assay concerns TLR9. The experiment in a line: In vivo mouse TLR9 PD model (CpG-ODN challenge, plasma IL-6). Particulars: oral. Here is the method:
In Vivo Mouse TLR7 and TLR9 PD Model:
Adult male C57BL/6 mice were used for the experiments. Mice (7 to 10 per group) were randomized into different treatment groups based on body weight. Mice from the respective treatment groups were administered orally with vehicle or test compound. Thirty min after the oral administration of vehicle or test compound, mice were challenged with intraperitoneal injection of gardiquimod for TLR7 PD model and CpG-ODN for TLR9 PD model. Ninety minutes after gardiquimod injection and 120 minutes after CpG-ODN injection, mice were bled under isoflurane anaesthesia and plasma IL-6 level was estimated by using commercially available ELISA kit (BD Biosciences). At the end of experiment, mean cytokine data was plotted and one way ANOVA with Dunnett's test was performed to calculate the significance of test compound treated group vs. vehicle control group. Percent inhibition of cytokine induction was calculated for test compound treated group vs vehicle control group.

The structures appear in SMILES notation.

For `COc1ccc(-c2[nH]c3ccc(C4CCN(Cc5ccncc5)CC4)cc3c2C)cc1OC` [Example 20, 2-(3,4-dimethoxyphenyl)-3-methyl-5-(1-(pyridin-4-ylmethyl)piperidin-4-yl)-1H-indole], the half-maximal inhibitory concentration (IC50) – broadly, the concentration needed to halve the response being measured – was 1740 nM against human TLR9 and 978 nM against human TLR8.
Taken in the same sequence, the figures for `CNCCN1CCC(c2ccc3[nH]c(-c4ccc(OC)c(OC)c4)c(C#N)c3c2)CC1` [Example 118, 2-(3,4-dimethoxyphenyl)-5-(1-(2-(methylamino)ethyl)piperidin-4-yl)-1H-indole-3-carbonitrile-di-trifluoroacetic acid] were 260 nM and 347 nM.
With `CNCCN1CCC(c2ccc3[nH]c(-c4ccc(OC)c(OC)c4)c(Cl)c3c2)CC1` [Example 119], the IC50 against human TLR9 was 409 nM; against human TLR8, 555 nM.
Consider `CCc1c(-c2ccc(OC)c(OC)c2)[nH]c2ccc(C3CCN(C4CCN(Cc5c(C)[nH]c6ccccc56)CC4)CC3)cc12` [Example 129, 2-(3,4-dimethoxyphenyl)-3-ethyl-5-(1′-((2-methyl-1H-indol-3-yl)methyl)-[1,4′-bipiperidin]-4-yl)-1H-indole], for which the IC50 amounted to 1140 nM at human TLR7 and 378 nM against human TLR8.
For `CCc1c(-c2ccc(OC)c(OC)c2)[nH]c2ccc(C3CCN(C4CCN(Cc5nccn5C)CC4)CC3)cc12` [Example 136, 2-(3,4-dimethoxyphenyl)-3-ethyl-5-(1′-((1-methyl-1H-imidazol-2-yl)methyl)-[1,4′-bipiperidin]-4-yl)-1H-indole], the IC50 at human TLR7 is 735 nM; against human TLR8 it was 330 nM.
As for `CCc1c(-c2ccc(OC)c(OC)c2)[nH]c2ccc(C3CCN(C4CCN(Cc5ccoc5)CC4)CC3)cc12` [Example 146, 2-(3,4-dimethoxyphenyl)-3-ethyl-5-(1′-(furan-3-ylmethyl)-[1,4′-bipiperidin]-4-yl)-1H-indole], the IC50 came out at 586 nM at human TLR7 and 178 nM on human TLR8.
At human TLR9, `CNCCN1CCC(c2ccc3[nH]c(-c4ccc(OC)c(OC)c4)c(C(C)C)c3c2)CC1` [Example 196, 2-(4-(2-(3,4-dimethoxyphenyl)-3-isopropyl-1H-indol-5-yl)piperidin-1-yl)-N-methylethan-1-amine] had an IC50 of 521 nM. For the same compound, the “% inhibition of IL6” value was determined as 47% in the assay on TLR9 (dose 1 mg/kg); 75% in the assay with TLR9 (dose 3 mg/kg); 83% in the assay with TLR9 (dose 10 mg/kg); 88% with TLR9 (dose 30 mg/kg); 62% in the assay with TLR9 (dose 100 mg/kg).
At human TLR8, `COc1ccc(-c2[nH]c3ccc(C4CCN(Cc5[nH]cnc5C)CC4)cc3c2C(C)C)cc1OC` [Example 267, 2-(3,4-dimethoxyphenyl)-3-isopropyl-5-(1-((4-methyl-1H-imidazol-5-yl)methyl)piperidin-4-yl)-1H-indole] registered an IC50 of 25 nM.
Regarding `COc1ccc(-c2[nH]c3ccc(C4CCN(C(=O)COC5CCN(C)CC5)CC4)cc3c2C(C)C)cc1OC` [Example 315, 1-(4-(2-(3,4-dimethoxyphenyl)-3-isopropyl-1H-indol-5-yl)piperidin-1-yl)-2-((1-methylpiperidin-4-yl)oxy)ethan-1-one], the IC50 against human TLR7 was 538 nM; at human TLR8 it was 824 nM.
